T1: rhamnosyltransferase 78D1 (Arabidopsis thaliana, UniProt Q9S9P6)
T1 construct: gene UGT78D1; codon-optimised synthetic gene in pET-28a (BamHI/EcoRI), E. coli BL21(DE3), Ni-NTA purified; theoretical monomer mass 50019 Da
T1 sequence (Q9S9P6 1-453): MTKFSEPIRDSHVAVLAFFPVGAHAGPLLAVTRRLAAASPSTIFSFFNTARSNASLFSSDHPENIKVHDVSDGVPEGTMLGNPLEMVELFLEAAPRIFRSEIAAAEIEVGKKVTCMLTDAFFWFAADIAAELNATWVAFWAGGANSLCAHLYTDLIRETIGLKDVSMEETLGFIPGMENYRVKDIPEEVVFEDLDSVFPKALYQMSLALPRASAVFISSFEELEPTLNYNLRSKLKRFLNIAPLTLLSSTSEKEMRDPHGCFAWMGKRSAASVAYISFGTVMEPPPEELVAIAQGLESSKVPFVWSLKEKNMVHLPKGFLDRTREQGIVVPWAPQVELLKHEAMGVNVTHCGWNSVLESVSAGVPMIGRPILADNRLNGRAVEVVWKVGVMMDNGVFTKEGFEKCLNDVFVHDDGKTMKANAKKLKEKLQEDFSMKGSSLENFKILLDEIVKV


Key:
[1] = target: T1, rhamnosyltransferase 78D1; assay: HPLC activity assay with […] UDP, […] min pre-incubation; format: biochemical; conditions: inhibitor; UDP-rhamnose donor, 0.5 mM isorhamnetin; 50 mM phosphate pH 7.5; 35 °C
[2] = substrate: COc1cc(-c2oc3cc(O)cc(O)c3c(=O)c2O)ccc1O; assay: HPLC of isorhamnetin-3-O-rhamnoside formation, initial rates; format: biochemical, Arabidopsis thaliana; conditions: co-substrate excess UDP-rhamnose, 50 mM phosphate pH 7.5, 35 °C

| Molecule | % activity [1] | Km [2] [µM] |
| --- | --- | --- |
| O=c1ccn([C@@H]2O[C@H](COP(=O)(O)OP(=O)(O)O)[C@@H](O)[C@H]2O)c(=O)[nH]1 [UDP] | The enzyme activity was inhibited when the concentration of UDP was gradually increased | – |
| rhamnosyltransferase 78D1 (Arabidopsis thaliana) (protein, codon-optimised synthetic gene in pET-28a (BamHI/EcoRI), E. coli BL21(DE3), Ni-NTA purified; theoretical monomer mass 50019 Da) MTKFSEPIRDSHVAVLAFFPVGAHAGPLLAVTRRLAAASPSTIFSFFNTARSNASLFSSDHPENIKVHDVSDGVPEGTMLGNPLEMVELFLEAAPRIFRSEIAAAEIEVGKKVTCMLTDAFFWFAADIAAELNATWVAFWAGGANSLCAHLYTDLIRETIGLKDVSMEETLGFIPGMENYRVKDIPEEVVFEDLDSVFPKALYQMSLALPRASAVFISSFEELEPTLNYNLRSKLKRFLNIAPLTLLSSTSEKEMRDPHGCFAWMGKRSAASVAYISFGTVMEPPPEELVAIAQGLESSKVPFVWSLKEKNMVHLPKGFLDRTREQGIVVPWAPQVELLKHEAMGVNVTHCGWNSVLESVSAGVPMIGRPILADNRLNGRAVEVVWKVGVMMDNGVFTKEGFEKCLNDVFVHDDGKTMKANAKKLKEKLQEDFSMKGSSLENFKILLDEIVKV | – | 181 |
